Patent publication US12612358B2, “Resorcinol-based compounds and uses thereof” (priority 2020, dated 2026)
pIC50: −log10 of the molar value.

Tests used:
U251 (glioblastoma) = experiment: Cell proliferation, U251 glioblastoma cells; format: cell-based; settings: Homo sapiens, U-251, read-out: IC50 category
Description: (§1) Effects of Compound-5B on cell proliferation in additional cancer cells: To determine whether Compound-5B would have broad based anticancer activity, we study whether Compound-5B would be effective at inhibiting cell proliferation in a variety of cancers overexpressing Id-1. The assay conditions used were identical to those presented for breast and pancreatic cancers. Indeed, Compound-5B was potent at inhibiting cell proliferation in blood cancer (leukemia), glioblastoma, prostate, and ovarian cancer.

DU145 (prostate) = experiment: Cell proliferation, DU145 prostate cancer cells; format: cell-based; settings: Homo sapiens, DU-145, read-out: IC50 category
Description: as §1

Id-1 = Id-1 expression in primary patient-derived BRC25 cells; format: cell-based, human
Protocol: Quantitative Western analysis: Cells are cultured and treated in 6-well dishes. After the cells are washed twice with cold PBS, lysis buffer is added. The cells are then lysed by freezing for 10 min at −70° C. and then thawing at ambient temperature. The cell lysate is collected and the protein content is determined by using Bradford reagent. Equal amounts of protein are heated at 90° C. in Laemmli sample buffer which also included β-mercaptoethanol. The samples are then loaded onto a precast SDS-PAGE gel (Bio-Rad Laboratories, Hercules, CA). After which, proteins are then electroblotted onto an Immobilon membrane (Millipore, Billerica, MA) overnight at 2-4° C. The membrane is then blocked for 1 hour with 5% nonfat dry milk which included TBS+Tween. The membranes are then incubated with an anti-Id-1 primary antibody, and then an appropriate secondary antibody was used. Blots are incubated for 45 min and then washed 4 times with TBS+Tween for 15 min each. […]
Effects of Compound-5B on breast cancer cell proliferation, Id-1 expression and invasion in culture. […] The ability of the cells to migrate and invade in modified Boyden chambers was determined. The percentage relative invasion was calculated as the effect on treated cells/vehicle cells×100. […]

MDA-MB231 cells [1] = experiment: Invasion in modified Boyden chambers, MDA-MB231 cells; format: cell-based, human
Protocol: Effects of Compound-5B on breast cancer cell proliferation, Id-1 expression and invasion in culture. […] The ability of the cells to migrate and invade in modified Boyden chambers was determined. The percentage relative invasion was calculated as the effect on treated cells/vehicle cells×100. Respective controls (vehicle treated cells) were set as 100%.

MDA-MB231 cells [2] = experiment: MDA-MB231 mammary fat pad primary tumor model in athymic nu/nu mice; format: in vivo, mouse; settings: MDA-MB231, 1 mg/kg i.p. once daily, 6 days a week
Protocol: Antitumor activity of Compound-5B in vivo in breast cancer. Based on the activity of Compound-5B in culture, the antitumor activity of Compound-5B was tested in vivo in two models of breast cancer (FIG. 4). Compound-5B produced a potent inhibition of Id-1 expression in human MDA-MB231 cells (FIG. 1A). We also determined whether it produced a similar effect in mouse 4T1 breast cancer cells. This cell line is commonly used for seeding a lung metastatic model in mice. […] LC=loading control (FIG. 4A). […] Lung metastases were generated in BALB/c mice by tail vein injection of 4×10^4 4T1 cells. Two days after the injection, the tumor bearing mice were injected i.p. once a day, six days a week, with vehicle or Compound 5B three weeks. Lung metastasis % (total metastatic foci in treated/vehicle×100) was evaluated (FIG. 4B). […] Animals with established tumors (average volume of 100 mm^3) were randomized and treated once daily, 6 days a week, with i.p., injections of vehicle, or 1 mg/kg Compound-5B, tumors were measured once weekly by an operator blinded to the treatment groups. Changes in tumor volume (mm^3) were calculated as (length×width2)/2. *indicates statistically significant differences between vehicle and Compound-5B (p<0.05, Two-way ANOVA repeated measures, and Tukey's multiple comparisons test).

CYP2C9 = target: T1, CYP2C9 (Homo sapiens, UniProt P11712); experiment: CYP2C9 inhibition; format: in vitro ADME; settings: 10 μM
T1 construct: purchased Eurofins
T1 sequence (P11712 whole entry): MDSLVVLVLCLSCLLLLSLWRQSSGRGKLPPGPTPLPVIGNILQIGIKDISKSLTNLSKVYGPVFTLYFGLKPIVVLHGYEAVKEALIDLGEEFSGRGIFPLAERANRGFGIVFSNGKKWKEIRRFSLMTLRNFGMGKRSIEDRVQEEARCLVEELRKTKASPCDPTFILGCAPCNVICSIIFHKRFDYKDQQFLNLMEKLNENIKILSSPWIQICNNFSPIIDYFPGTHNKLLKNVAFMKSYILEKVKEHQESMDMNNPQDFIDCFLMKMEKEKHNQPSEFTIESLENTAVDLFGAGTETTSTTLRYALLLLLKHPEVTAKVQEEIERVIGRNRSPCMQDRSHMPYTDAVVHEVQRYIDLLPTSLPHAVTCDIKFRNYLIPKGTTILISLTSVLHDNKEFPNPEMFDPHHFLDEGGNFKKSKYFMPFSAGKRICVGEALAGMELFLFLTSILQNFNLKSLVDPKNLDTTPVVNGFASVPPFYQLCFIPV
Protocol: Evaluating ADME of Compound-5B in vitro. It is important to evaluate ADME first in culture as it allows for the selection of the best candidate for PK analysis in vivo. ADME analysis of Compound-5B was performed by Eurofins.

CCCCCCC(C)(C)c1cc(O)c(C(=O)Nc2ccccc2)c(O)c1 [Compound 5B, 2,6-dihydroxy-4-(2-methyloctan-2-yl)-N-phenylbenzamide]
pIC50 (U251 (glioblastoma)): > 6.30 | pIC50 (DU145 (prostate)): > 6.30 | inhibition of Id-1 expression (Id-1): significant potency | invasion of MDA-MB231 cells (MDA-MB231 cells [1]): inhibits the invasion | primary tumor growth (MDA-MB231 cells [2]): able to inhibit primary tumor growth | inhibition of CYP2C9 (CYP2C9): some inhibition
